“Also recorded” adds a separate entry of the source.
Key:
[1] = system: P-bodies (EDC4 foci) in HEK293T cells; assay: Immunofluorescence phenotypic screen for P-bodies (α-EDC4) in glucose-deprived HEK293T cells; format: cell-based; conditions: glucose-deprived HEK293T cells, 25 μM, 2 h
Method: SuTEx compound treatments. Prior to treatments, cells were washed twice with warm phosphate-buffered saline (PBS) and exchanged with serum-free DMEM (supplemented with 1% L-glutamine) for at least 30 minutes at 37° C. with 5% CO2. Compounds were then added as 1000×DMSO stocks (10 μL for 10 cm dishes and 3 μL for 6-well dishes), plates were mixed gently, and cells were incubated for two hours. All compounds were thoroughly vortexed and sonicated for five minutes prior to addition to ensure complete solvation. For microscopy experiments, cultures were seeded at 150,000 cells in 3 mL of DMEM in 6-well THERMO SCIENTIFIC™ BIOLITE™ brand microwell plates (Catalog No. 12556004; Thermo Fisher Scientific Inc., Waltham, Massachusetts. United States of America). For collection, media was aspirated, and cells were washed once with cold PBS before scraping from plates. Cells were centrifuged at 500×g at 4° C. for 5 minutes and supernatant was removed. Cell pellets were resuspended in cold PBS (1 mL) and centrifuged at 1,400×g at 4° C. for 3 minutes. Supernatant was again removed, and pellets were then snap-frozen in liquid nitrogen and stored at −80° C. until needed.
Immunofluorescence. Immunofluorescence (IF) of HEK293T cells was performed as previously described in Ciancone et al., 2022. HeLa cells were seeded at 9.0×10^4 in a 24-well plate with 12-mm glass coverslips. The next day, the cells were treated with 25 μM SuTEx probe for 2 hours in DMEM medium without FBS. The cells were then treated with 75 μM NaAsO2 for 30 minutes and fixed with 3% paraformaldehyde in PBS for 15 minutes at room temperature (RT) and washed with PBS twice. The fixed cells were permeabilized with PBST (0.1% Triton X-100) for 15 minutes at room temperature and blocked with 5% goat serum in PBST for 30 minutes at RT. The cells were incubated with anti-G3BP1 antibody H-10 (Catalog No. sc-365338 at 1:200 dilution; Santa Cruz Biotechnology, Inc., Dallas, Texas, United States of America) for 2 hours at RT and washed with PBST (0.1% Tween-20) for 5 minutes three times. Next, cells were incubated with goat anti-mouse Alexa 594 antibody (Catalog No. 115-585-003 at 1:800 dilution; Jackson ImmunoResearch, West Grove, Pennsylvania, United States of America) for 30 minutes at RT. The cells were washed twice with PBST, stained with Hoechst 33342 (Catalog No. H3570 at […]; Thermo Fischer Scientific) in PBST for 5 minutes, and washed with PBS twice for 5 minutes. The coverslips were mounted in PROLONG™ Gold AntiFade Mountant (Catalog No. P36930, Thermo Fisher Scientific) and imaged using NIS Elements AR software and a Nikon Eclipse Ti microscope equipped with a ×100 objective and CMOS camera. […] A CellProfiler pipeline was developed to quantify the number of stress granules under each condition. Briefly, cells were recognized as blue^+ (nuclei) red^+ (G3BP1) objects, and the red^+ granules that meet the shape and size threshold were identified and counted. Cells on the border of linages were excluded from the analysis for more accurate quantification.
Data Analysis—Microscopy. All slides were blinded for imaging. Leica SP5X images were analyzed using Fiji (ImageJ). Custom macros were written for analysis and can be obtained upon request. To elaborate, images were split into channels based on the different laser wavelengths measured. Image stacks were then combined using ‘Z-Project’ with an average intensity parameter and a threshold was applied to exclude noise based on the negative control (no EDC4 antibody). The ‘Analyze Particles’ function was used with relevant size and circularity constraints (0.85-1.00) to count the number of foci, with total PBs having a diameter of >150 nm, and large PBs>450 nm. The number of foci was normalized to the number of cells (defined by a DAPI stain count) in each linage, and the number of foci per cell was averaged across technical replicates. Every sample had at least two technical replicates and two independent biological replicates. […]

[2] = Lipophilic efficiency calculation (cLogP from ChemDraw); conditions: from IC50 (AHL-030) or EC50 (HHS-166) and cLogP
Method: Lipophilic efficiency calculations for AHL-030 and HHS-166. Lipophilic efficiency was calculated as previously described in Leeson & Springthorpe, 2007 using IC50 (AHL-030) and EC50 (HHS-166) potency values from experiments and c Log P values from ChemDraw (Version 20.0.0.41 on a Windows PC): […]

[3] = system: G3BP1 WT-rescued G3BP KO cells; assay: SG formation in G3BP KO U20S cells rescued with G3BP1 WT; format: cell-based; conditions: 2 h; for inhibition at 25 µM: G3BP1 WT-rescued G3BP KO U20S cells, read-out: reduction in SGs/cell; for effect on SG formation (in words): G3BP1 WT-rescued G3BP KO cells, 25 μM
Method: G3BP KO and rescue studies. U20S G3BP1/2 double knockout (G3BP KO) cell-line was a kind gift from the C. Brangwynne lab (Princeton University, Princeton, New Jersey, United States of America) and generated as previously described in Kedersha et al., 2016. G3BP KO cells were seeded at 9.0×10^4 in a 24-well plate with 12-mm glass coverslips. Next day, the cells were transfected with […] vectors with 1 μg/mL tetracycline and LIPOFECTAMINE™ 3000 brand transfection reagent according to the manufacturer's protocol (Thermo Fisher Scientific). 20 hours post-transfection, the cells were treated with 25 μM SuTEx probes for 2 hours in DMEM medium without FBS. The cells were then treated with 75 μM NaAsO2 for 30 minutes and fixed with 3% paraformaldehyde in PBS for 15 minutes at RT and washed with PBS twice. The same protocols for IF of HeLa cells and quantification of G3BP1-positive SGs described above were followed thereafter.
To determine whether the cell biological effects mediated by HHS-166 were Y40-dependent, we expressed recombinant G3BP1 WT or Y40 mutant in previously established G3BP1/2 double knockout U20S (G3BP KO) cells (Kedersha et al., 2016; Sanders et al., 2020) and evaluated the resulting effects on SG response to [COMPOUND LEFT OUT]. We compared SG response of G3BP KO cells expressing a G3BP1 Y40 covalent binding- and phospho-deficient mutant (Y40F) with a phosphomimetic counterpart (Y40E). G3BP KO cells were previously shown to be deficient in [COMPOUND LEFT OUT]-induced SG formation (Sanders et al., 2020). Expression of G3BP1 WT rescued this deficiency and restored cellular SG response to [COMPOUND LEFT OUT] [1.6 vs 11 SGs/cell in (−)[COMPOUND LEFT OUT] vs (+)[COMPOUND LEFT OUT], respectively; FIGS. 6A and 6B].

Row | Structure (SMILES) | effect on PBs (in words) [1] | LipE (lipophilic efficiency) [2] | inhibition at 25 µM [3] [%] | effect on SG formation (in words) [3]
1 | CC(C)c1cc(C(C)C)c(S(=O)(=O)n2cc(-c3ccc(C(F)(F)F)cc3)nn2)c(C(C)C)c1 [AHL-003] | block both types of RNP granules; also recorded: inhibited |  |  | 
2 | COc1ccc(S(=O)(=O)n2cc(CS(C)(=O)=O)nn2)cc1 [AHL-030, 1-((4-Methoxyphenyl)sulfonyl)-4-((methylsulfonyl)methyl)-1H-1,2,3-triazole] | PB-inhibitory; also recorded: modestly inhibiting PBs; also recorded: decreased PBs | 7 |  | 
3 | N#Cc1ccc(S(=O)(=O)n2cc(-c3cccc(Cl)c3)nn2)cc1 [EKT231, 4-((4-(3-Chlorophenyl)-1H-1,2,3-triazol-1-yl)sulfonyl)benzonitrile] |  |  | 9 to 13 | not observed; also recorded: inactive
4 | COc1ccc(S(=O)(=O)n2cc(C3CCCCC3)nn2)cc1 [HHS-166, 4-Cyclohexyl-1-((4-methoxyphenyl)sulfonyl)-111-1,2,3-triazole] |  | 3 | 57 | statistically significant decrease in SGs; also recorded: blocked; also recorded: statistically significant decreases in SG formation

— patent US20260294874A1, “COMPOSITIONS COMPRISING MODULATORS OF RIBONUCLEOPROTEIN GRANULE FORMATION AND DISSOLUTION AND METHODS OF USE THEREOF” (University of Virginia Patent Foundation, priority 2023, published 2026)
